The values that follow come from patent publication US20210127673A1, “HERBICIDES” (SYNGENTA PARTICIPATIONS AG, priority 2016, published 2021).

Molecules are shown by their SMILES.

What all share (format): in vivo
What all share (conditions): 1000 g/ha, evaluated after 13 days

The subject of assay [1] is Triticum aestivium (TRZAW). The experiment in a line: Pre-emergence herbicidal activity, Triticum aestivium. Further details: key: 5=total damage to plant; 0=no damage to plant. The method, boiled down:
(§1)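 Seeds sown in standard soil in pots, grown one day in a glasshouse (24/16 °C day/night, 14 h light, 65% humidity), then sprayed pre-emergence with compound in acetone/water (50:50) containing 0.5% Tween 20. Plants were scored after 13 days on a 0–5 scale (5 = total damage, 0 = none).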

The test system of assay [2] is Avena fatua (AVEFA). In words: Pre-emergence herbicidal activity, Avena fatua. Further details: key: 5=total damage to plant; 0=no damage to plant. A digest of the protocol: as §1
Assay [3] relates to Alopecurus myosuroides (ALOMY). In words: Pre-emergence herbicidal activity, Alopecurus myosuroides. Further details: key: 5=total damage to plant; 0=no damage to plant. A digest of the protocol: as §1
Assay [4] has as its system Echinochloa crus-galli (ECHCG). The experiment in a line: Pre-emergence herbicidal activity, Echinochloa crus-galli. A digest of the protocol: as §1
For assay [5], the system named is Lolium perenne (LOLPE). In words: Pre-emergence herbicidal activity, Lolium perenne. Further details: key: 5=total damage to plant; 0=no damage to plant. The method, boiled down: as §1
Assay [6] relates to Setaria faberi (SETFA). The experiment in a line: Pre-emergence herbicidal activity, Setaria faberi. Further details: key: 5=total damage to plant; 0=no damage to plant. A digest of the protocol: as §1
Assay [7] concerns Triticum aestivium (TRZAW). In words: Post-emergence herbicidal activity, Triticum aestivium. Further details: key: 5=total damage to plant; 0=no damage to plant. The method, boiled down:
(§2)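 Post-em, 8 d plants, pots; acetone:water 1:1 + 0.5% Tween 20 spray; 24/16 °C, 14 h photoperiod, 65% RH; 13 d readout, 0–5 phytotoxicity scale.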

For assay [8], the system named is Avena fatua (AVEFA). The experiment in a line: Post-emergence herbicidal activity, Avena fatua. A digest of the protocol: as §2
Assay [9] has as its system Alopecurus myosuroides (ALOMY). The experiment in a line: Post-emergence herbicidal activity, Alopecurus myosuroides. Further details: key: 5=total damage to plant; 0=no damage to plant. A digest of the protocol: as §2
The subject of assay [10] is Echinochloa crus-galli (ECHCG). The experiment in a line: Post-emergence herbicidal activity, Echinochloa crus-galli. The method, boiled down:
as §2

Assay [11] has as its system Lolium perenne (LOLPE). The experiment in a line: Post-emergence herbicidal activity, Lolium perenne. The method, boiled down: as §2
Assay [12] concerns Setaria faberi (SETFA). In words: Post-emergence herbicidal activity, Setaria faberi. Further details: key: 5=total damage to plant; 0=no damage to plant. A digest of the protocol:
as §2

For `O=C(Nc1ccc(-c2cncc(F)c2)nc1C(F)(F)F)OCc1ccc(Cl)cc1` [Compound B105], in assay [1], the “Control of TRAZW after pre-emergence application (score 0-5)” value came to 0. Also, the “Control of AVEFA after pre-emergence application (score 0-5)” value in the assay on Avena fatua (AVEFA) [2] came to 1. The “Control of ALOMY after pre-emergence application (score 0-5)” value in [3] is 0. For the same compound, in assay [4], the “Control of ECHCG after pre-emergence application (score 0-5)” value amounted to 2. In addition, the “Control of LOLPE after pre-emergence application (score 0-5)” value with Lolium perenne (LOLPE) [5] stood at 1. For the same compound, the “Control of SETFA after pre-emergence application (score 0-5)” value in the assay on Setaria faberi (SETFA) [6] is 5. For the same compound, the “Control of TRAZW after post-emergence application (score 0-5)” value in assay [7] was determined as 0. The “Control of AVEFA after post-emergence application (score 0-5)” value in the assay with Avena fatua (AVEFA) [8] stood at 3. Moreover, the “Control of ALOMY after post-emergence application (score 0-5)” value in assay [9] is reported as 0. For the same compound, in assay [10], the “Control of ECHCG after post-emergence application (score 0-5)” value is given as 4. Also, the “Control of LOLPE after post-emergence application (score 0-5)” value with Lolium perenne (LOLPE) [11] is given as 1. In addition, in the assay on Setaria faberi (SETFA) [12], the “Control of SETFA after post-emergence application (score 0-5)” value is on record as 5.
On to `CCCCOC(=O)Nc1ccc(-c2cncc(F)c2)nc1C(F)(F)F` [Compound B58], for which the “Control of TRAZW after pre-emergence application (score 0-5)” value in assay [1] was 0. In the assay with Avena fatua (AVEFA) [2], the “Control of AVEFA after pre-emergence application (score 0-5)” value is given as 1. Besides, the “Control of ALOMY after pre-emergence application (score 0-5)” value in assay [3] amounted to 0. Moreover, in assay [4], the “Control of ECHCG after pre-emergence application (score 0-5)” value is on record as 2. For the same compound, the “Control of LOLPE after pre-emergence application (score 0-5)” value with Lolium perenne (LOLPE) [5] was 1. Also, in the assay on Setaria faberi (SETFA) [6], the “Control of SETFA after pre-emergence application (score 0-5)” value was 2. For the same compound, in [7], the “Control of TRAZW after post-emergence application (score 0-5)” value turned out to be 0. In the assay on Avena fatua (AVEFA) [8], the “Control of AVEFA after post-emergence application (score 0-5)” value is given as 2. Besides, the “Control of ALOMY after post-emergence application (score 0-5)” value in assay [9] is reported as 0. For the same compound, the “Control of ECHCG after post-emergence application (score 0-5)” value in assay [10] amounted to 3. The “Control of LOLPE after post-emergence application (score 0-5)” value in the assay with Lolium perenne (LOLPE) [11] worked out at 2. Besides, in the assay with Setaria faberi (SETFA) [12], the “Control of SETFA after post-emergence application (score 0-5)” value is listed as 5.
In the case of `C#CCOC(=O)Nc1ccc(-c2cncc(F)c2)nc1C(F)(F)F` [Compound B61], the “Control of TRAZW after pre-emergence application (score 0-5)” value in [1] is given as 0. In addition, the “Control of AVEFA after pre-emergence application (score 0-5)” value in the assay with Avena fatua (AVEFA) [2] is 2. In [3], the “Control of ALOMY after pre-emergence application (score 0-5)” value turned out to be 1. For the same compound, the “Control of ECHCG after pre-emergence application (score 0-5)” value in assay [4] was 3. Also, the “Control of LOLPE after pre-emergence application (score 0-5)” value in the assay on Lolium perenne (LOLPE) [5] stood at 1. The “Control of SETFA after pre-emergence application (score 0-5)” value in the assay on Setaria faberi (SETFA) [6] came to 2. Besides, the “Control of TRAZW after post-emergence application (score 0-5)” value in assay [7] turned out to be 0. Moreover, the “Control of AVEFA after post-emergence application (score 0-5)” value in the assay with Avena fatua (AVEFA) [8] stood at 2. Further, the “Control of ALOMY after post-emergence application (score 0-5)” value in [9] is reported as 1. Moreover, the “Control of ECHCG after post-emergence application (score 0-5)” value in assay [10] is on record as 4. Further, the “Control of LOLPE after post-emergence application (score 0-5)” value in the assay on Lolium perenne (LOLPE) [11] is listed as 2. In addition, in the assay with Setaria faberi (SETFA) [12], the “Control of SETFA after post-emergence application (score 0-5)” value is given as 4.
As to `CN(C(=O)OC(C)(C)C)c1ccc(-c2cncc(C#N)c2)nc1C(F)(F)F` [Compound B4], the “Control of TRAZW after pre-emergence application (score 0-5)” value in [1] is 1. The “Control of AVEFA after pre-emergence application (score 0-5)” value in the assay on Avena fatua (AVEFA) [2] stood at 0. For the same compound, in [3], the “Control of ALOMY after pre-emergence application (score 0-5)” value came to 0. The “Control of ECHCG after pre-emergence application (score 0-5)” value in assay [4] is 1. Also, in the assay with Lolium perenne (LOLPE) [5], the “Control of LOLPE after pre-emergence application (score 0-5)” value amounted to 0. For the same compound, in the assay on Setaria faberi (SETFA) [6], the “Control of SETFA after pre-emergence application (score 0-5)” value is listed as 4. In [7], the “Control of TRAZW after post-emergence application (score 0-5)” value worked out at 2. Moreover, the “Control of AVEFA after post-emergence application (score 0-5)” value in the assay on Avena fatua (AVEFA) [8] worked out at 2. In [9], the “Control of ALOMY after post-emergence application (score 0-5)” value was determined as 1. In addition, in assay [10], the “Control of ECHCG after post-emergence application (score 0-5)” value was determined as 4. In addition, in the assay with Lolium perenne (LOLPE) [11], the “Control of LOLPE after post-emergence application (score 0-5)” value came to 1. For the same compound, the “Control of SETFA after post-emergence application (score 0-5)” value in the assay on Setaria faberi (SETFA) [12] is 5.
Consider `CON(C)C(=O)Nc1ccc(-c2cncc(F)c2)nc1C(F)(F)F` [Compound B111], for which the “Control of TRAZW after pre-emergence application (score 0-5)” value in assay [1] is recorded as 0. Moreover, in the assay with Avena fatua (AVEFA) [2], the “Control of AVEFA after pre-emergence application (score 0-5)” value amounted to 2. The “Control of ALOMY after pre-emergence application (score 0-5)” value in assay [3] came to 0. The “Control of ECHCG after pre-emergence application (score 0-5)” value in [4] was found to be 3. In the assay with Lolium perenne (LOLPE) [5], the “Control of LOLPE after pre-emergence application (score 0-5)” value is recorded as 0. In the assay on Setaria faberi (SETFA) [6], the “Control of SETFA after pre-emergence application (score 0-5)” value is on record as 3. The “Control of TRAZW after post-emergence application (score 0-5)” value in assay [7] was found to be 0. Further, the “Control of AVEFA after post-emergence application (score 0-5)” value in the assay on Avena fatua (AVEFA) [8] was 2. Further, in [9], the “Control of ALOMY after post-emergence application (score 0-5)” value worked out at 0. Further, the “Control of ECHCG after post-emergence application (score 0-5)” value in [10] was determined as 3. Moreover, the “Control of LOLPE after post-emergence application (score 0-5)” value in the assay on Lolium perenne (LOLPE) [11] is listed as 1. In addition, the “Control of SETFA after post-emergence application (score 0-5)” value in the assay with Setaria faberi (SETFA) [12] is 4.
